Results reported in patent publication US20110251379A1, “COMPOUNDS USEFUL FOR TREATING NEURODEGENERATIVE DISORDERS” (Satori Pharmaceuticals, Inc., priority 2010, published 2011).
Like-named read-outs stand apart in the source and are kept apart here.

Test system: amyloid-beta (1-42) peptide
Assay: ELISA assay of amyloid-beta (1-42) in conditioned media of 2B7 cells
Format: cell-based
Details: for IC50: Aβ-42, 2B7 cells, 5 hours, read-out: IC50 range; for inhibition at 100 µM: Aβ-42, 100 umol/L; for % Inhibition (range) / inhibition at 20 µM: Aβ-42, 20 umol/L
How it was run: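 2B7 cells were treated with compounds for 5 hours at 37° C in media with 1% DMSO. Conditioned media, diluted 1:2 in blocking buffer, went into a sandwich ELISA with 6E10 capture and an HRP-labelled detection antibody, read by TMB at 450 nm. Values came from an Aβ peptide standard curve.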

| SMILES | IC50 (5 h) [nM] | IC50 [nM] | other results |
| --- | --- | --- | --- |
| C[C@@H]1C[C@H]([C@@H]2OCOC2(C)C)OC2C1[C@@]1(C)CC[C@@]34C[C@@]35CC[C@H](O[C@@H]3OC[C@@H](O)[C@H](O)[C@H]3O)C(C)(C)[C@@H]5CC[C@H]4[C@]1(C)[C@H]2O (some centres unmarked) | 1000 to 10000 |  |  |
| CC(=O)O[C@@H]([C@H]1C[C@@H](C)[C@H]2[C@H](O1)[C@H](O)[C@@]1(C)[C@@H]3CC[C@H]4C(C)(C)[C@@H](O[C@H]5CN(CCN6CCCC6)CCO5)CC[C@@]45C[C@@]35CC[C@]21C)C(C)(C)O | ≤ 1000 |  |  |
| CC(=O)O[C@@H]([C@H]1C[C@@H](C)C2=C(O1)[C@H](O[Si](C)(C)C(C)(C)C)[C@@]1(C)[C@@H]3CC[C@H]4C(C)(C)[C@H](N)CC[C@@]45C[C@@]35CC[C@]21C)C(C)(C)O |  |  | inhibition at 100 µM (read-out: % Inhibition (range)): < 25% |
| CC1CC(C(O)C(C)(C)O)OC2C1C1(C)CCC34CC35CCC(OC3CN(C(=O)CC6CCOCC6)CCO3)C(C)(C)C5CCC4C1(C)C2O (centres unmarked) |  |  | % Inhibition (range): F (% inhibition of <25%) |
| CC1CC(C(=O)N2CCOCC2)OC2C1C1(C)CCC34CC35CCC(O)C(C)(C)C5CCC4C1(C)C2O (centres unmarked) |  | > 10000 |  |
| CCC(=O)N(CC1CC(C)C2C(O1)C(O)C1(C)C3CCC4C(C)(C)C(O)CCC45CC35CCC21C)C(C)(C)C (centres unmarked) |  | > 10000 |  |
| CC(=O)O[C@@H]([C@H]1C[C@@H](C)C2C(O1)[C@H](O)[C@@]1(C)[C@@H]3CC[C@H]4C(C)(C)[C@@H](OC(=O)c5ccccn5)CC[C@@]45C[C@@]35CC[C@]21C)C(C)(C)O (some centres unmarked) | ≤ 1000 |  |  |
| C[C@@H]1C[C@H](C(=O)C(C)(C)O)OC2C1[C@@]1(C)CC[C@@]34C[C@@]35CC[C@H](O)C(C)(C)[C@@H]5CC[C@H]4[C@]1(C)[C@H]2O (some centres unmarked) |  |  | inhibition at 20 µM (read-out: % Inhibition (range)): < 25% |
| CC1CC(CN(C)C(=O)C(C)(C)C)OC2C1C1(C)CCC34CC35CCC(OC(=O)c3cccnc3)C(C)(C)C5CCC4C1(C)C2O (centres unmarked) |  | > 10000 |  |
| CC(=O)O[C@@H]([C@H]1C[C@@H](C)C2C(O1)[C@H](O)[C@@]1(C)[C@@H]3CC[C@H]4C(C)(C)[C@@H](O[C@H]5CN(O)CCO5)CC[C@@]45C[C@@]35CC[C@]21C)C(C)(C)O (some centres unmarked) | ≤ 1000 |  |  |
| CC1CC(C(=O)N2CCC2)OC2C1C1(C)CCC34CC35CCC(O)C(C)(C)C5CCC4C1(C)C2O (centres unmarked) |  | > 10000 |  |
| C[C@@H]1C(O)CO[C@@]2(O)C[C@H]3[C@@H]4CC=C5C[C@@H](O[Si](C)(C)C(C)(C)C)CC[C@]5(C)[C@H]4CC[C@]3(C)[C@@H]12 (some centres unmarked) |  |  | inhibition at 10 µM (Aβ-42, 10 umol/L, read-out: % Inhibition (range)): < 25% |
| CC(=O)O[C@@H]([C@H]1C[C@@H](C)C2C(O1)[C@H](O)[C@@]1(C)[C@@H]3CC[C@H]4C(C)(C)[C@@H](OC5CN(C6CCCC6)CCO5)CC[C@@]45C[C@@]35CC[C@]21C)C(C)(C)O (some centres unmarked) | ≤ 1000 |  |  |
| CC(=O)O[C@@H]([C@H]1C[C@@H](C)[C@H]2[C@H](O1)[C@H](O)[C@@]1(C)[C@@H]3CC[C@H]4C(C)(C)C(OC(=O)c5ccncc5)CC[C@@]45C[C@@]35CC[C@]21C)C(C)(C)O (some centres unmarked) | ≤ 1000 |  |  |
| CC1CC(C(=O)C(C)(C)O)OC2C1C1(C)CCC34CC35CCC(O)C(C)(C)C5CCC4C1(C)C2O (centres unmarked) [drawing 864] |  | > 10000 |  |
| CC1CC(C(O)C(C)(C)O)OC2C1C1(C)CCC34CC35CCC(OC3CN(C6CCOC6)CCO3)C(C)(C)C5CCC4C1(C)C2O (single isomer, unassigned) [drawing 1106] |  |  | % Inhibition (range): E (% inhibition of 25-75%) |
| CC(=O)OC(C1CC(C)C2C(O1)C(O)C1(C)C3CCC4C(C)(CCC(O)C4(C)C)C3=CCC21C)C(C)(C)O (centres unmarked) |  | ≤ 1000 |  |
| CC1CC(C(OC(=O)C2CC2)C(C)(C)O)OC2C1C1(C)CCC34CC35CCC(O)C(C)(C)C5CCC4C1(C)C2O (centres unmarked) [drawing 853] |  | ≤ 1000 |  |
| C[C@@H]1C[C@H](C=O)OC2C1[C@@]1(C)CC[C@@]34C[C@@]35CC[C@H](O)C(C)(C)[C@@H]5CC[C@H]4[C@]1(C)[C@H]2O (some centres unmarked) |  |  | inhibition at 100 µM (read-out: % Inhibition (range)): < 25% |
| CC(=O)O[C@@H]([C@H]1C[C@@H](C)C2C(O1)[C@H](OC(N)=O)[C@@]1(C)[C@@H]3CC[C@H]4C(C)(C)[C@@H](OC(N)=O)CC[C@@]45C[C@@]35CC[C@]21C)C(C)(C)O (some centres unmarked) |  |  | inhibition at 20 µM (read-out: % Inhibition (range)): < 25% |
